Measurements as given in patent publication US9149038B2, “4-amino-6-(heterocyclic)picolinates and 6-amino-2-(heterocyclic)pyrimidine-4-carboxylates and their use as herbicides” (Dow AgroSciences LLC, priority 2013, dated 2015).
Where two headings read alike, the source gives them in different places.

How the values were obtained:
[1] = tested on: Key Broadleaf Weed and Crop Species; test: Post-Emergent Test II: postemergent herbicidal activity, visual rating after 14 d (Table 7); assay type: in vivo; conditions: post-emergence, 336 h; for pest or weed control at 35 g/ha: 35 g ai/ha; for pest or weed control at 70 g/ha: 70 g ai/ha; for pest or weed control at 140 g/ha: 140 g ai/ha
How it was run: (§1)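 Greenhouse plants at first or second true leaf stage sprayed with compound in acetone/DMSO-based spray solution with crop oil concentrate and Triton X-155 at 187 L/ha, tested at highest rate and ½× to 1/16× dilutions; solvent blank controls. Injury rated visually 0–100% versus untreated plants after 14 d.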

[2] = tested on: Key Grass and Sedge Weeds as well as Grass Crops; test: Post-Emergent Test II: postemergent herbicidal activity, visual rating after 14 d (Table 8); assay type: in vivo; conditions: post-emergence, 336 h; for pest or weed control at 35 g/ha: 35 g ai/ha; for pest or weed control at 70 g/ha: 70 g ai/ha; for pest or weed control at 140 g/ha: 140 g ai/ha
How it was run: as §1

[3] = ABUTH: velvetleaf (Abutilon theophrasti), read-out: Visual Growth Reduction (%) 14 Days After Application ABUTH
[4] = AMARE: redroot pigweed (Amaranthus retroflexus), read-out: Visual Growth Reduction (%) 14 Days After Application AMARE
[5] = BRSNN: oilseed rape, canola (Brassica napus), read-out: Visual Growth Reduction (%) 14 Days After Application BRSNN
[6] = CHEAL: lambsquarters (Chenopodium album), read-out: Visual Growth Reduction (%) 14 Days After Application CHEAL
[7] = EPHHL: wild poinsettia (Euphorbia heterophylla), read-out: Visual Growth Reduction (%) 14 Days After Application EPHHL
[8] = HELAN: sunflower (Helianthus annuus), read-out: Visual Growth Reduction (%) 14 Days After Application HELAN
[9] = barnyardgrass (Echinochloa crus-galli), read-out: Visual Growth Reduction (%) 14 Days After Application, ECHCG
[10] = giant foxtail (Setaria faberi), read-out: Visual Growth Reduction (%) 14 Days After Application, SETFA
[11] = rice (Oryza sativa), read-out: Visual Growth Reduction (%) 14 Days After Application, ORYSA
[12] = wheat, spring (Triticum aestivum), read-out: Visual Growth Reduction (%) 14 Days After Application, TRZAS
[13] = yellow nutsedge (Cyperus esculentus), read-out: Visual Growth Reduction (%) 14 Days After Application, CYPES
[14] = maize, corn (Zea mays), read-out: Visual Growth Reduction (%) 14 Days After Application, ZEAMX

SMILES: COC(=O)c1nc(-c2ccc(Cl)c3c2OC(F)(F)O3)c(C)c(N)c1Cl [Compound 94]
- pest or weed control at 35 g/ha [1, 3]: 30 to 44%
- pest or weed control at 70 g/ha [1, 3]: 45 to 59%
- pest or weed control at 140 g/ha [1, 3]: 45 to 59%
- pest or weed control at 35 g/ha [1, 4]: 95 to 100%
- pest or weed control at 70 g/ha [1, 4]: 95 to 100%
- pest or weed control at 140 g/ha [1, 4]: 95 to 100%
- pest or weed control at 35 g/ha [1, 5]: 0 to 29%
- pest or weed control at 70 g/ha [1, 5]: 0 to 29%
- pest or weed control at 140 g/ha [1, 5]: 0 to 29%
- pest or weed control at 35 g/ha [1, 6]: 75 to 84%
- pest or weed control at 70 g/ha [1, 6]: 85 to 94%
- pest or weed control at 140 g/ha [1, 6]: 85 to 94%
- pest or weed control at 35 g/ha [1, 7]: 0 to 29%
- pest or weed control at 70 g/ha [1, 7]: 0 to 29%
- pest or weed control at 140 g/ha [1, 7]: 0 to 29%
- pest or weed control at 35 g/ha [1, 8]: 60 to 74%
- pest or weed control at 70 g/ha [1, 8]: 85 to 94%
- pest or weed control at 140 g/ha [1, 8]: 95 to 100%
- pest or weed control at 35 g/ha [2, 9]: 0 to 29%
- pest or weed control at 70 g/ha [2, 9]: 0 to 29%
- pest or weed control at 140 g/ha [2, 9]: 0 to 29%
- pest or weed control at 35 g/ha [2, 10]: 0 to 29%
- pest or weed control at 70 g/ha [2, 10]: 0 to 29%
- pest or weed control at 140 g/ha [2, 10]: 0 to 29%
- pest or weed control at 35 g/ha [2, 11]: 0 to 29%
- pest or weed control at 70 g/ha [2, 11]: 0 to 29%
- pest or weed control at 140 g/ha [2, 11]: 0 to 29%
- pest or weed control at 35 g/ha [2, 12]: 0 to 29%
- pest or weed control at 70 g/ha [2, 12]: 0 to 29%
- pest or weed control at 140 g/ha [2, 12]: 0 to 29%
- pest or weed control at 35 g/ha [2, 13]: 0 to 29%
- pest or weed control at 70 g/ha [2, 13]: 0 to 29%
- pest or weed control at 140 g/ha [2, 13]: 0 to 29%

SMILES: COC(=O)c1nc(-c2ccc(Cl)c3c2OC(F)(F)O3)nc(N)c1OC [Compound 95]
- pest or weed control at 35 g/ha [1, 3]: 45 to 59%
- pest or weed control at 70 g/ha [1, 3]: 75 to 84%
- pest or weed control at 140 g/ha [1, 3]: 75 to 84%
- pest or weed control at 35 g/ha [1, 4]: 95 to 100%
- pest or weed control at 70 g/ha [1, 4]: 95 to 100%
- pest or weed control at 140 g/ha [1, 4]: 95 to 100%
- pest or weed control at 35 g/ha [1, 5]: 45 to 59%
- pest or weed control at 70 g/ha [1, 5]: 45 to 59%
- pest or weed control at 140 g/ha [1, 5]: 60 to 74%
- pest or weed control at 35 g/ha [1, 6]: 95 to 100%
- pest or weed control at 70 g/ha [1, 6]: 95 to 100%
- pest or weed control at 140 g/ha [1, 6]: 95 to 100%
- pest or weed control at 35 g/ha [1, 7]: 0 to 29%
- pest or weed control at 70 g/ha [1, 7]: 0 to 29%
- pest or weed control at 140 g/ha [1, 7]: 0 to 29%
- pest or weed control at 35 g/ha [1, 8]: 95 to 100%
- pest or weed control at 70 g/ha [1, 8]: 95 to 100%
- pest or weed control at 140 g/ha [1, 8]: 95 to 100%
- pest or weed control at 35 g/ha [2, 9]: 0 to 29%
- pest or weed control at 70 g/ha [2, 9]: 0 to 29%
- pest or weed control at 140 g/ha [2, 9]: 0 to 29%
- pest or weed control at 35 g/ha [2, 10]: 0 to 29%
- pest or weed control at 70 g/ha [2, 10]: 0 to 29%
- pest or weed control at 140 g/ha [2, 10]: 0 to 29%
- pest or weed control at 35 g/ha [2, 14]: 0 to 29%
- pest or weed control at 70 g/ha [2, 14]: 0 to 29%
- pest or weed control at 140 g/ha [2, 14]: 0 to 29%
- pest or weed control at 35 g/ha [2, 11]: 0 to 29%
- pest or weed control at 70 g/ha [2, 11]: 0 to 29%
- pest or weed control at 140 g/ha [2, 11]: 0 to 29%
- pest or weed control at 35 g/ha [2, 12]: 0 to 29%
- pest or weed control at 70 g/ha [2, 12]: 0 to 29%
- pest or weed control at 140 g/ha [2, 12]: 0 to 29%
- pest or weed control at 35 g/ha [2, 13]: 0 to 29%
- pest or weed control at 70 g/ha [2, 13]: 45 to 59%
- pest or weed control at 140 g/ha [2, 13]: 45 to 59%

SMILES: COc1c(N)nc(-c2ccc(Cl)c3c2OC(F)(F)O3)nc1C(=O)O [Compound 96]
- pest or weed control at 35 g/ha [1, 3]: 75 to 84%
- pest or weed control at 70 g/ha [1, 3]: 60 to 74%
- pest or weed control at 140 g/ha [1, 3]: 85 to 94%
- pest or weed control at 35 g/ha [1, 4]: 95 to 100%
- pest or weed control at 70 g/ha [1, 4]: 95 to 100%
- pest or weed control at 140 g/ha [1, 4]: 95 to 100%
- pest or weed control at 35 g/ha [1, 5]: 0 to 29%
- pest or weed control at 70 g/ha [1, 5]: 75 to 84%
- pest or weed control at 140 g/ha [1, 5]: 85 to 94%
- pest or weed control at 35 g/ha [1, 6]: 95 to 100%
- pest or weed control at 70 g/ha [1, 6]: 95 to 100%
- pest or weed control at 140 g/ha [1, 6]: 95 to 100%
- pest or weed control at 35 g/ha [1, 7]: 0 to 29%
- pest or weed control at 70 g/ha [1, 7]: 0 to 29%
- pest or weed control at 140 g/ha [1, 7]: 0 to 29%
- pest or weed control at 35 g/ha [1, 8]: 95 to 100%
- pest or weed control at 70 g/ha [1, 8]: 95 to 100%
- pest or weed control at 140 g/ha [1, 8]: 95 to 100%
- pest or weed control at 35 g/ha [2, 9]: 0 to 29%
- pest or weed control at 70 g/ha [2, 9]: 0 to 29%
- pest or weed control at 140 g/ha [2, 9]: 0 to 29%
- pest or weed control at 35 g/ha [2, 10]: 0 to 29%
- pest or weed control at 70 g/ha [2, 10]: 0 to 29%
- pest or weed control at 140 g/ha [2, 10]: 0 to 29%
- pest or weed control at 35 g/ha [2, 14]: 30 to 44%
- pest or weed control at 70 g/ha [2, 14]: 60 to 74%
- pest or weed control at 140 g/ha [2, 14]: 60 to 74%
- pest or weed control at 35 g/ha [2, 11]: 0 to 29%
- pest or weed control at 70 g/ha [2, 11]: 0 to 29%
- pest or weed control at 140 g/ha [2, 11]: 0 to 29%
- pest or weed control at 35 g/ha [2, 12]: 0 to 29%
- pest or weed control at 70 g/ha [2, 12]: 30 to 44%
- pest or weed control at 140 g/ha [2, 12]: 45 to 59%
- pest or weed control at 35 g/ha [2, 13]: 0 to 29%
- pest or weed control at 70 g/ha [2, 13]: 0 to 29%
- pest or weed control at 140 g/ha [2, 13]: 0 to 29%
